Patent US11066384B2, “Crystalline forms of ARN-509, preparation method and use thereof” (Crystal Pharmaceutical (Suzhou) Co., Ltd., priority 2018, dated 2021)
“Also recorded” adds a separate entry of the source. Where two headings read alike, the source gives them in different places.

Assays:
[1] = Adhesiveness: material sticking to the punch; format: physicochemical; conditions: 30 mg, φ8 mm round tooling, 10 KN, held 30 s
Procedure: Approximately 30 mg of Form CS8, Form A and Form B of the prior art were weighed and then added into the dies of φ8 mm round tooling, compressed at 10 KN and held for 30 s. The punch was weighed and amount of material sticking to the punch was calculated. The compression was repeated twice and the cumulative amount, maximum amount and average amount of material sticking to the punch during compression process were recorded.

[2] = Kinetic solubility of Form CS8, Form A and Form B in pH 1.0-6.8 media (HPLC); format: physicochemical
Procedure: The HPLC method parameters for solubility test in the present disclosure are as follows:
1. Column: Waters XBridge C18 150×4.6 mm, 5 μm
2. Mobile Phase: A: 0.1% TFA in H2O • B: 0.1% TFA in Acetonitrile
4. Injection Volume: 5 μL
5. Detection wavelength: 242 nm
6. Column Temperature: 40° C.
Different parts of the human body have different acidity (pH 1.0-8.0). The pH in stomach is 1.0-2.0, and the pH in the small intestine is 4.0-7.0. The stomach and small intestine are the key organs for drug dissolution and absorption, so measuring the dynamic solubility of a drug in a medium with pH 1.0-7.0 plays an important role in predicting the in vivo bioavailability.
About 20 mg of Form CS8, Form A and Form B of the prior art were suspended into 2.0 mL of 0.1 mol/L HCl aqueous solution (pH=1.0), 2.0 mL of acetic acid buffer solution (PH=4.5) and 2.0 mL of phosphate buffer solution (pH=6.8) to make suspensions. After equilibrated for 15 minutes, 30 minutes, and 1 hour, concentrations (μg/mL) of the saturated solutions were measured by HPLC.

[3] = Compressibility: tensile strength of compacts; format: physicochemical; conditions: 80 mg, φ6 mm round tooling, 10 KN; for Diameter / Hardness / Thickness: after 24 h at room temperature; for Tensile strength: T=2H/πDL
Procedure: 80 mg of Form CS8, Form A and Form B of the prior art were weighed and added into the dies of φ6 mm round tooling, compressed at 10 KN manually, then stored at room temperature for 24 h until complete elastic recovery. Hardness (H) was tested with an Intelligent Tablet Hardness Tester. Diameter (D) and thickness (L) were tested with a caliper. Tensile strength of the powder was calculated with the following formula: T=2H/πDL. Under a certain force, the greater the tensile strength, the better the compressibility.

[4] = Particle size distribution (laser particle size analyzer); format: physicochemical; conditions: Isopar G containing 0.2% lecithin
Procedure: The particle size distribution data in the present disclosure were acquired by an […] laser particle size analyzer of Microtrac. Microtrac […] is equipped with an SDC (Sample Delivery Controller). The test is carried out in wet mode, and the dispersion medium is Isopar G. The laser particle size analyzer parameters are as follows: [table] Approximately 20 mg of Form CS8, Form A and Form B of the prior art were added into 10 mL of Isopar G (containing 0.2% lecithin). The mixture was mixed thoroughly and transferred into the SDC. The measurement was started when the sample amount indicator is in appropriate position. The average particle diameter calculated by volume, the diameter at which 10% mass is comprised of smaller particles (D10), the diameter at which 50% mass is comprised of smaller particles (D50) and the diameter at which 90% mass is comprised of smaller particles (D90) were obtained in particle size distribution test.

[5] = Mechanical stability: manual grinding for 5 minutes (XRPD); format: physicochemical; conditions: ground manually for 5 minutes in a mortar
Procedure: Form CS8, Form A and Form B of the prior art were ground manually for 5 minutes in a mortar, XRPD patterns were collected before and after gridding. The XRPD pattern overlay of Form CS8, Form A and Form B of the prior art are depicted in FIG. 17, FIG. 18 and FIG. 19.

[6] = cited from earlier work
[7] = 0.1 mol/L HCl aqueous solution pH=1.0, equilibrated 15 min
[8] = 0.1 mol/L HCl aqueous solution pH=1.0, equilibrated 30 min
[9] = 0.1 mol/L HCl aqueous solution pH=1.0, equilibrated 1 h
[10] = acetic acid buffer solution pH=4.5, equilibrated 15 min
[11] = acetic acid buffer solution pH=4.5, equilibrated 30 min
[12] = acetic acid buffer solution pH=4.5, equilibrated 1 h
[13] = phosphate buffer solution pH=6.8, equilibrated 15 min
[14] = phosphate buffer solution pH=6.8, equilibrated 30 min
[15] = phosphate buffer solution pH=6.8, equilibrated 1 h

Compound | Average amount of material sticking to the punch [1] [mg] | Maximum amount of material sticking to the punch [1] [mg] | Solubility (concentration of saturated solution) [2, 7] [µg/mL] | Solubility (concentration of saturated solution) [2, 8] [µg/mL] | Solubility (concentration of saturated solution) [2, 9] [µg/mL] | Solubility (concentration of saturated solution) [2, 10] [µg/mL] | Solubility (concentration of saturated solution) [2, 11] [µg/mL] | Solubility (concentration of saturated solution) [2, 12] [µg/mL] | Solubility (concentration of saturated solution) [2, 13] [µg/mL] | Solubility (concentration of saturated solution) [2, 14] [µg/mL] | Solubility (concentration of saturated solution) [2, 15] [µg/mL] | Diameter [3] [mm] | Hardness [3] [N] | Thickness [3] [mm] | Tensile strength [3] [MPa] | D10 [4] [μm] | D50 [4] [μm] | D90 [4] [μm] | MV (average particle diameter calculated by volume) [4] [μm] | Crystalline form/crystallinity after grinding [5] | also measured
CNC(=O)c1ccc(N2C(=S)N(c3cnc(C#N)c(C(F)(F)F)c3)C(=O)C23CCC3)cc1F [Form A of the prior art, 4-[7-(6-cyano-5-trifluoromethylpyridin-3-yl)-8-oxo-6-thioxo-5,7-diazaspiro[3.4]oct-5-yl]-2-fluoro-N-methylbenzamide] | 0.13 | 0.19 | 7.4 | 6.2 | 8.0 | 5.9 | 5.2 | 5.5 | 6.1 | 8.4 | 4.8 | 6.08 | 12.3 | 2.10 | 0.64 | 4.22 | 14.81 | 130.4 | 53.51 | transformed into amorphous after grinding; also recorded: Almost change to amorphous | –
CNC(=O)c1ccc(N2C(=S)N(c3cnc(C#N)c(C(F)(F)F)c3)C(=O)C23CCC3)cc1F [Form B of the prior art, 4-[7-(6-cyano-5-trifluoromethylpyridin-3-yl)-8-oxo-6-thioxo-5,7-diazaspiro[3.4]oct-5-yl]-2-fluoro-N-methylbenzamide] | 0.15 | 0.17 | 1.2 | 1.5 | 1.3 | 1.1 | 1.4 | 1.3 | 1.2 | 1.0 | 0.9 | 6.09 | 10.1 | 2.13 | 0.50 | 12.1 | 241.7 | 1133 | 420.3 | decreases after grinding; also recorded: Crystallinity decreased | –
CNC(=O)c1ccc(N2C(=S)N(c3cnc(C#N)c(C(F)(F)F)c3)C(=O)C23CCC3)cc1F [Form F, 4-[7-(6-cyano-5-trifluoromethylpyridin-3-yl)-8-oxo-6-thioxo-5,7-diazaspiro[3.4]oct-5-yl]-2-fluoro-N-methylbenzamide] | – | – | – | – | – | – | – | – | – | – | – | – | – | – | – | – | – | – | – | – | Crystal form transformation ([6]; ambient conditions): transform to form A
CNC(=O)c1ccc(N2C(=S)N(c3cnc(C#N)c(C(F)(F)F)c3)C(=O)C23CCC3)cc1F [Form H, 4-[7-(6-cyano-5-trifluoromethylpyridin-3-yl)-8-oxo-6-thioxo-5,7-diazaspiro[3.4]oct-5-yl]-2-fluoro-N-methylbenzamide] | – | – | – | – | – | – | – | – | – | – | – | – | – | – | – | – | – | – | – | – | Crystal form transformation ([6]; high temperature and high humidity conditions): easily transformed into form B
CNC(=O)c1ccc(N2C(=S)N(c3cnc(C#N)c(C(F)(F)F)c3)C(=O)C23CCC3)cc1F [Form I, 4-[7-(6-cyano-5-trifluoromethylpyridin-3-yl)-8-oxo-6-thioxo-5,7-diazaspiro[3.4]oct-5-yl]-2-fluoro-N-methylbenzamide] | – | – | – | – | – | – | – | – | – | – | – | – | – | – | – | – | – | – | – | – | Crystal form transformation ([6]; high humidity conditions): transform to form B
